For test [1], the target named is T1, DYRK1A (Homo sapiens, UniProt Q13627). The test can be described thus: Kinase TR-FRET assay, DYRK1A. It is filed as biochemical. The arrangement: full-length, wild-type human DYRK1A (NM_001396) with an HA tag; expressed in transfected cells; host or cells: human U2-OS osteosarcoma cells, transient transfection of a pcDNA3.1 plasmid. The settings on record: full-length human kinase, 10 μM ATP. How it is done: Inhibition of the enzymatic activity of human kinases was evaluated in a Time-Resolved Fluorescence Resonance Energy Transfer (TR-FRET) assay in 384-well reaction plates. […] Test compounds of the invention were added in reaction buffer at a range of concentrations from 0.1 nM to 30 μM. Following addition of EDTA (Sigma E7889, 10 mM) to stop the reaction, Europium-labelled mouse monoclonal antibody recognizing phospho-Thr232 in MBP (Perkin Elmer TRF0201, 1 nM) was added.

Test [2] has as its target T2, His-TEV-DYRK1A Kinase domain (aa127-485) (Homo sapiens, UniProt Q13627).
T2 construct: His-TEV-DYRK1A Kinase domain (aa127-485); His tag (N); TEV protease cleavage site (N)
The test can be described thus: Kinase ADP assay (ADP Hunter), DYRK1A kinase domain. The test is classed as biochemical. Conditions: 20 μM ATP. An outline of the steps: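 Readout is ADP Hunter fluorescence at 590 nm, developed 20 min at 30 °C after the kinase step. That step ran 10 min at 30 °C in Hepes pH 7.4 (10 mM MgCl2, 1 mM EGTA, 0.02% Tween20) containing 20 μM ATP, 40 μM peptide and 20 nM enzyme plus compound.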

Test [3] concerns the target T1, DYRK1A. In words: Cellular DYRK1 autophosphorylation assay in U2-OS cells. Further details: full-length, wild-type human DYRK1A (NM_001396) with an HA tag; expressed in transfected cells; host or cells: human U2-OS osteosarcoma cells, transient transfection of a pcDNA3.1 plasmid. The test is classed as cell-based. Conditions: U2-OS cells transfected with HA-tagged human DYRK1A, 5 hours exposure; read-out: IC50 (μM) P-Ser520-Dyrk1A -Cell assay. How it is done: On day 2, cells were exposed to a range of concentrations of the test compounds of the invention for 5 hours. […] The relative levels of phospho-Ser520-DYRK1A were assayed using either western blotting or the Mesoscale ELISA platform. For analysis by western blot, lysates were diluted into Laemmli sample buffer (Bio-Rad) containing 5% v/v β-mercaptoethanol, heated for 5 min at 95° C., and resolved on Tris-glycine gels or NuPage Bis-Tris gels (Novex; Invitrogen). Biotinylated molecular weight standards (Cell Signaling Technology) were included in all gels. Proteins were transferred to nitrocellulose membranes (Hybond, ECL; Amersham), which were blocked in Tris-buffered saline/0.1% tween 20 (TBST) containing 5% milk, and probed at 4° C. overnight with anti-phospho-Ser520-DYRK1A antibody (Eurogentec SE6974-75; 0.23 μg/ml in 5% BSA) or anti DYRK1A antibody (Abnova H00001859; 0.5 μg/ml in 5% milk). Peroxidase-conjugated secondary antibodies were diluted into 5% milk and applied to membranes for 1 h at 20° C. Chemiluminescence detection was performed using the ECL plus western blotting detection kit (Amersham) and was recorded on ECL plus hyperfilm (Amersham). Blots were scanned using the Bio-Rad GS-800 calibrated densitometer and quantitative analysis of western blots was performed using TotalLab software (Amersham). IC50 values for inhibition of phospho-Ser520-DYRK1A were calculated from dose-response curves plotting the ratio between phospho-Ser520-DYRK1A and total DYRK1A signals at each concentration. […] Anti-phospho-Ser520-DYRK1A antibody (Eurogentec SE6974-75; […]) and anti DYRK1A antibody (Abnova H00001859; 3 μg/ml) was then added for 1 hour at RT, followed by addition of Sulfa-TAG anti-rabbit detection antibody (ref MSD R32AB; 1 μg/ml) and Sulfa-TAG anti-mouse detection antibody (ref MSD R32-AC-1; 1 μg/ml). After a further 1 hour, Read Buffer was added and plates were read on the Sector Imager 2400 (Mesoscale). IC50 values for inhibition of phospho-Ser520-DYRK1A were calculated from dose-response curves.

Our source for the IC50 values is US20180273528A1 (LES LABORATOIRES SERVIER, priority 2015, published 2018).

For the compound `Cc1nc2ccc(-c3cc(N)nc(N)c3)nc2n1Cc1ccccc1` [Example 8, 4-(3-benzyl-2-methyl-3H-imidazo[4,5-b]pyridin-5-yl)pyridine-2,6-diamine], the IC50 in test [1] worked out at 0.061 µM; in test [2] it was 0.128 µM.
In the same order, the values of `Cc1nc2ccc(-c3cc(N)nc(N)c3)nc2n1[C@H]1C[C@H]2C[C@@H]([C@@H]1C)C2(C)C` [Example 16, 4-[2-methyl-3-[(1S,2S,3S,5R)-2,6,6-trimethylbicyclo[3.1.1]hept-3-yl]-3H-imidazo[4,5-b]pyridin-5-yl]pyridine-2,6-diamine] are 0.153 µM and 0.367 µM.
In the same order, the values of `Cc1nc2ccc(-c3cc(N)nc(N)c3)nc2n1CC12CC3CC(CC(C3)C1)C2` [Example 22, 4-{2-methyl-3-tricyclo[3.3.1.1^3,7]dec-1-ylmethyl-3H-imidazo[4,5-b]pyridin-5-yl}pyridine-2,6-diamine] are 0.069 µM and 0.364 µM.
In the same order, the values of `Cc1cc([C@@H](C)n2c(C)nc3ccc(-c4cc(N)nc(N)c4)nc32)ccn1` [Example 32, 4-{2-methyl-3-[(I R)-1-(2-methylpyridin-4-yl)ethyl]-3H-imidazo[4,5-b]pyridin-5-yl}pyridine-2,6-diamine] are 0.095 µM and 0.037 µM.
Consider `CCC(C)n1c(C)nc2ccc(-c3cc(N)nc(N)c3)nc21` (stereo not drawn) [Example 33, 4-[3-(butan-2-yl)-2-methyl-3H-imidazo[4,5-b]pyridin-5-yl]pyridine-2,6-diamine], for which the values for the IC50 in test [1] and in test [2] were 0.045 µM and 0.018 µM, respectively.
The corresponding values for `CCOC(=O)N1CCC(n2c(C)nc3ccc(-c4cc(N)nc(N)c4)nc32)CC1` [Example 35] are 0.012 µM and 0.008 µM.
As for `Cc1nc2ccc(-c3cc(N)nc(N)c3)nc2n1CC(O)CO` (stereo not drawn) [Example 37, 3-[5-(2,6-diaminopyridin-4-yl)-2-methyl-3H-imidazo[4,5-b]pyridin-3-yl]propane-1,2-diol], the IC50 in test [1] is 0.052 µM; in test [2], 0.027 µM.
The corresponding values for `Cc1nc2ccc(-c3cc(N)nc(N)c3)nc2n1C1CCN(C(=O)C(C)C)CC1` [Example 38, 1-{4-[5-(2,6-diaminopyridin-4-yl)-2-methyl-3H-imidazo[4,5-b]pyridin-3-yl]piperidin-1-yl}-2-methylpropan-1-one] are 0.028 µM and 0.008 µM.
The corresponding values for `COc1cc(Cl)ccc1Cn1c(C)nc2ccc(-c3cc(N)nc(N)c3)nc21` [Example 39, 4-[3-(4-chloro-2-methoxybenzyl)-2-methyl-3H-imidazo[4,5-b]pyridin-5-yl]pyridine-2,6-diamine] are 0.245 µM and 0.045 µM.
The corresponding values for `Cc1nc2ccc(-c3cc(N)nc(N)c3)nc2n1Cc1ccc(C#N)cc1` [Example 40, 4-{[5-(2,6-diaminopyridin-4-yl)-2-methyl-3H-imidazo[4,5-b]pyridin-3-yl]methyl}benzonitrile] are 0.154 µM and 0.187 µM.
Regarding `Cc1nc2ccc(-c3cc(N)nc(N)c3)nc2n1Cc1ccc(OC(F)F)cc1` [Example 43, 4-{3-[4-(difluoromethoxy)benzyl]-2-methyl-3H-imidazo[4,5-b]pyridin-5-yl}pyridine-2,6-diamine], the figures for the IC50 in test [1] and in test [2] were 0.116 µM and 0.109 µM, respectively.
The corresponding values for `Cc1nn(C)c(C)c1Cn1c(C)nc2ccc(-c3cc(N)nc(N)c3)nc21` [Example 45, 4-{2-methyl-3-[(3,5-trimethyl-1H-pyrazol-4-yl)methyl]-3H-imidazo[4,5-b]pyridin-5-yl}pyridine-2,6-diamine] are 0.177 µM and 0.055 µM.
In the same order, the values of `Cc1nc2ccc(-c3cc(N)nc(N)c3)nc2n1Cc1cc(F)ccc1F` [Example 46, 4-[3-(2,5-difluorobenzyl)-2-methyl-3H-imidazo[4,5-b]pyridin-5-yl]pyridine-2,6-diamine] are 0.056 µM and 0.035 µM.
The corresponding values for `Cc1nc2ccc(-c3cc(N)nc(N)c3)nc2n1Cc1cccc(Cl)c1` [Example 48, 4-[3-(3-chlorobenzyl)-2-methyl-3H-imidazo[4,5-b]pyridin-5-yl]pyridine-2,6-diamine] are 0.116 µM and 0.056 µM.
In the case of `Cc1nc2ccc(-c3cc(N)nc(N)c3)nc2n1C(C)(C)c1ccccc1` [Example 60, 4-[2-methyl-3-(2-phenylpropan-2-yl)-3H-imidazo[4,5-b]pyridin-5-yl]pyridine-2,6-diamine], the IC50 in test [1] stood at 0.149 µM; in test [2], 0.51 µM.
The corresponding values for `Cc1nc2ccc(-c3cc(N)nc(N)c3)nc2n1C1CCCc2ccccc21` (stereo not drawn) [Example 62, 4-[2-methyl-3-(1,2,3,4-tetrahydronaphthalen-1-yl)-3H-imidazo[4,5-b]pyridin-5-yl]pyridine-2,6-diamine] are 0.166 µM and 0.781 µM.
The corresponding values for `CCC(c1ccccc1)n1c(C)nc2ccc(-c3cc(N)nc(N)c3)nc21` (stereo not drawn) [Example 67, 4-[2-methyl-3-(1-phenylpropyl)-3H-imidazo[4,5-b]pyridin-5-yl]pyridine-2,6-diamine] are 0.104 µM and 0.903 µM.
Consider `COc1ccccc1CCCn1c(C)nc2ccc(-c3cc(N)nc(N)c3)nc21` [Example 69, 4-{3-[3-(2-methoxyphenyl)propyl]-2-methyl-3H-imidazo[4,5-b]pyridin-5-yl}pyridine-2,6-diamine], for which the IC50 stood at 0.002 µM in test [1] and 0.007 µM in test [2].
For the compound `Cc1nc2ccc(-c3cc(N)nc(N)c3)nc2n1CCOc1cccc(C(F)(F)F)n1` [Example 194, 4-[2-methyl-3-(2-{[6-(trifluoromethyl)pyridin-2-yl]oxy}ethyl)-3H-imidazo[4,5-b]pyridin-5-yl]pyridine-2,6-diamine], the IC50 in test [2] worked out at 0.007 µM; in test [3], 0.02 µM.
In the same order, the values of `Cc1cccc(OCCn2c(C)nc3ccc(-c4cc(N)nc(N)c4)nc32)n1` [Example 195, 4-(2-methyl-3-{2-[(6-methylpyridin-2-yl)oxy]ethyl}-3H-imidazo[4,5-b]pyridin-5-yl)pyridine-2,6-diamine] are 0.013 µM and 0.106 µM.
The corresponding values for `Cc1nc2ccc(-c3cc(N)nc(N)c3)nc2n1CCOc1cccc(N)n1` [Example 196, 4-(3-{2-[(6-aminopyridin-2-yl)oxy]ethyl}-2-methyl-3H-imidazo[4,5-b]pyridin-5-yl)pyridine-2,6-diamine] are 0.012 µM and 0.141 µM.
Consider `Cc1nc2ccc(-c3cc(N)nc(N)c3)nc2n1CCOc1cccc(C#N)n1` [Example 197, 6-{2-[5-(2,6-diaminopyridin-4-yl)-2-methyl-3H-imidazo[4,5-b]pyridin-3-yl]ethoxy}pyridine-2-carbonitrile], for which the IC50 worked out at 0.007 µM in test [2] and 0.054 µM in test [3].
The corresponding values for `Cc1ccc(OCCn2c(C)nc3ccc(-c4cc(N)nc(N)c4)nc32)cc1` [Example 208, 4-{2-methyl-3-[2-(4-methylphenoxy)ethyl]-3H-imidazo[4,5-b]pyridin-5-yl}pyridine-2,6-diamine] are 0.016 µM and 0.155 µM.
The corresponding values for `Cc1nc2ccc(-c3cc(N)nc(F)c3)nc2n1C1CC(F)(F)C1` [Example 240, 4-[3-(3,3-difluorocyclobutyl)-2-methyl-3H-imidazo[4,5-b]pyridin-5-yl]-6-fluoropyridin-2-amine] are 0.016 µM and 0.153 µM.
